Legend:
[1] = prophylactic drops; cited from earlier work
[2] = topical use in the ear; cited from earlier work
[3] = tested on: ear; settings: guinea pigs; cited from earlier work
[4] = tested on: inner ear hearing function; assay: Application to the round window membrane with monitoring of compound action potential (CAP); type: in vivo, guinea pigs; settings: 0.05 to 1.0% applied directly to the round window membrane, more than 50 animals
From the text: The inventor conducted animal studies involving application of alpha agonists, including phenylphrine (and other similar agents) directly in the middle ear space of guinea pigs. In these studies, phenylephrine at a concentration of 0.05 to 1.0% was applied directly to the round window membrane of the animal. […] The monitoring of CAP was not specifically reported in published reports, but rather was monitored on a routine basis as a part of the experimental setup. […] See also Isaacson G et al., Oxymetazoline solutions inhibit middle ear pathogens and are not ototoxic.

[5] = topical; cited from earlier work

Molecule | toxicity for the inner ear (ototoxicity) [2] | effectiveness in treating middle ear infections [5] | also measured
O=C(O)c1cn(C2CC2)c2cc(N3CCNCC3)c(F)cc2c1=O [ciprofloxacin] | – | – | prevention of post-operative ear drainage after tube insertion [1]: effective at preventing post-operative ear drainage after tube insertion
CC1COc2c(N3CCN(C)CC3)c(F)cc3c(=O)c(C(=O)O)cn1c23 (stereo not drawn) [ofloxacin] | demonstrated lack of toxicity for the inner ear | – | –
Cc1cc(C(C)(C)C)c(O)c(C)c1CC1=NCCN1 [oxymetazoline] | – | – | toxicity to the ear [3]: non-toxic to the ear
CNC[C@H](O)c1cccc(O)c1 [phenylephrine] | – | – | compound action potential (CAP), a measure of inner ear hearing function [4]: not found to be adversely affected
NC[C@H]1O[C@H](O[C@H]2[C@H](O)[C@@H](O[C@H]3O[C@H](CO)[C@@H](O)[C@H](N)[C@H]3O)[C@H](N)C[C@@H]2N)[C@H](N)C[C@@H]1O [tobramycin] | scattered reports of ototoxicity | effective in treating middle ear infections topically | –
Gentamycin | scattered reports of ototoxicity | effective in treating middle ear infections topically | –
neomycin | – | effective in treating middle ear infections topically | –

Reference: US20070173463A1, “Method and composition for treating otitis media” (priority 2006, published 2007)
